# From patent US10604473B2, “Lipids that increase insulin sensitivity and methods of using the same” (Beth Israel Deaconess Medical Center, Inc., priority 2013, dated 2020)
# Entries after “also recorded” stand apart in the source; their conditions may differ.
# Legend:
# [1] = system: Ins1 cells; test: Insulin release in INS1 cells; assay type: cell-based; details: 25 mM glucose in the media
# Method: Ins1 cells (FIG. 21) or primary rat islet cells (FIG. 22) were seeded in 24 well-plates [˜10^6 cells/well]. At confluence, cells were incubated with Low Serum [2.5%] and Low Glucose [2.5 mM] media for 12 hours. Next, cells were incubated with KRB buffer for 1 h and stimulated with glucose in the presence of 5-PAHSA (FIG. 21) or 9-PAHSA (FIG. 21) for 45 min in KRB. At the end of the stimulation, 100 μL of media was collected and 10 μL was used to quantitate the amount of insulin released by ELISA. Treatment Conditions for FIGS. 21 and 22 were: • 5-PAHSA or 9-PAHSA [Stock]=20.0 mM [10.76 mg/mL Methanol] • A] 1 uM=0.3 uL/6 mL [Amount of methanol/mL=0.05 uL] • B] 5 uM=1.5 uL/6 mL [Amount of methanol/mL=0.25 uL] • C] 10 uM=3.0 uL/6 mL [Amount of methanol/mL=0.50 uL] • D] 20 uM=6.0 uL/6 mL [Amount of methanol/mL=1.00 uL]
# INS-1 cells were seeded in 24 well-plates [˜10^6 cells/well] and at 80% confluence, were cultured overnight in RPMI 1640 medium containing 2.5 mM glucose and 2.5% fetal bovine serum supplemented with 100 IU/ml penicillin and […], 1 mM sodium pyruvate, 2-mercaptoethanol (50 μM) and 10 mM HEPES (pH 7.4). […] At the end of the stimulation supernatant was collected and insulin released into the medium was quantified by ELISA as per manufacturer's protocol. […]
# [2] = system: STC-1 cells; test: GLP-1 secretion from STC-1 enteroendocrine cells (ELISA); assay type: cell-based
# Method: For the experiments summarized in FIG. 41 STC-1 cells were incubated with vehicle (DMSO), 9-PAHSA, 5-PAHSA or 9-OAHSA at the indicated concentrations or lineolic acid (100 uM) as a positive control. Media was harvested and GLP-1 was measured by ELISA.
# For the experiments summarized in FIG. 42, the same protocol as described for FIG. 41 was used, except in this experiment a time course was performed. For both FIG. 41 and FIG. 42, for GLP-1 secretion STC1 cells were washed 3× with serum free culture media followed by stimulation with FAHFAs or vehicle at the indicated concentrations and timepoints. Levels of active GLP-1 were measured by ELISA.
# [3] = system: insulin-resistant high-fat fed mice; test: Insulin tolerance test in HFD-fed mice; assay type: in vivo, mouse; details: for baseline glycemia: 2.5-3 hours after administration; for area above the insulin response curve / insulin sensitivity: ITT
# Method: Area under the curve (AUC), *p<0.05 compared to vehicle. […] Area above the curve (AAC). *p<0.05 compared to vehicle. […] Area under the curve (AUC). *p<0.05 compared to vehicle. FIG. 53D is a bar graph showing serum insulin levels 5 min post glucose challenge in chow-fed mice gavaged with 5-PAHSA or vehicle (glucose values shown in FIG. 53C). n=12-14 per group, *p<0.05 compared to vehicle by t-test. FIG. 53E is a bar graph showing serum GLP-1 levels 5 min post glucose challenge from chow-fed mice gavaged with 5-PAHSA or vehicle (glucose levels in FIG. 53C). n=12-14 per group, *p<0.05 compared to vehicle by t-test. FIG. 53F are bar graphs showing insulin secretion from primary human islets from two independent donors. Islets were incubated with low (2.5 mM) or high (20 mM) glucose ex vivo in the presence of 5-PAHSA (20 μM) or vehicle control. n=100 islets per condition, *p<0.05 compared to control 2.5 mM glucose, ^#p<0.05 compared to respective treatments at 2.5 mM glucose, ^$p<0.05 compared to control or diluents at 20 mM glucose by t-test. FIG. 53G are bar graphs showing active GLP-1 secretion from STC-1 cells in response to 5-PAHSA (5-P), 9-PAHSA (9P), […] (LA), GW9508 (GW) or vehicle control (DMSO). n=4 per group, *p<0.05 compared to vehicle by t-test. All data are mean±s.e.m. See also FIG. 56.
# [4] = system: 3T3-L1 adipocytes; test: Glucose transport in 3T3-L1 adipocytes; assay type: cell-based
# Method: FIGS. 54A-D show glucose uptake regulation by PAHSAs and Glut4 translocation via GPR120. FIG. 54A is a bar graph showing insulin-stimulated glucose transport in 3T3-L1 adipocytes treated 9-PAHSA (20 μM) or vehicle (DMSO) control for 6 days. n=6 per group, *p<0.05 compared to vehicle by t-test. FIG. 54B is a bar graph showing insulin (10 nM)-stimulated glucose transport in 3T3-L1 adipocytes transfected with control siRNA or GPR120 siRNA and treated 5-PAHSA (10 μM), 9-PAHSA (10 μM) or vehicle (DMSO) control for 2 days. n=3 per group, *p<0.05 compared to DMSO+control siRNA or GPR120 siRNA alone, $p<0.05 compared to control siRNA or GPR120 siRNA+insulin and GPR120 siRNA+insulin+PAHSA by t-test. FIG. 54C is a panel showing Glut4 plasma membrane translocation in 3T3-L1 adipocytes transfected with control siRNA or GPR120 siRNA and treated with 9-PAHSA in the presence or absence of insulin. 6 separate experiments were carried out without RNAi and 3 experiments with RNAi; each experiment had greater than 50 cells per experimental condition. FIG. 54D is a bar graph showing quantification of Glut4 translocation in panel C. *p<0.05 compared to control siRNA+insulin and GPR120 siRNA+insulin+9-PAHSA by t-test. All data are presented as mean±s.e.m. See also FIG. 57.
# For all cell culture experiments, FAHFAs were solubilized in DMSO at a concentration of 20 mM and further diluted in assay buffer or cell culture media to the working concentrations indicated for each assay. In all instances an equivalent volume of vehicle (DMSO) was added to control treatment groups.
Compound,insulin secretion [1],GLP-1 secretion [2],time course for GLP-1 secretion [2],baseline glycemia [3],area above the insulin response curve [3],insulin sensitivity [3],glucose transport ([4]; basal state),insulin-stimulated glucose transport [4]
"CCCCCCCCCCCCCCCC(=O)OC(CCCCCCCCC)CCCCCCCC(=O)O (stereo not shown) [9-PAHSA, palmitoyl-9-hydroxystearic acid]",potentiate insulin secretion,rapidly stimulated GLP-1 secretion; also recorded: induce GLP-1 secretion,very rapid and sustained,lowered baseline glycemia,more than a doubling,improved insulin sensitivity,modestly increased glucose transport,
CCCCCCCCCCCCCCCC(=O)OC(CCCCCCCCCCCCC)CCCC(=O)O (stereo not shown) [5-PAHSA],potentiate insulin secretion,rapidly stimulated GLP-1 secretion; also recorded: induce GLP-1 secretion,,lowered baseline glycemia,more than a doubling,improved insulin sensitivity,,enhanced insulin-induced glucose transport
